Results: US10473645B2, “Methods for identifying a receptor for a ligand and uses thereof” (UNIVERSITE DE GENEVE, priority 2014, dated 2019)

Tests used:
OSNs expressing olfr229 = assay: pS6 immunolabeling with OR in situ hybridization after odorant exposure; assay type: in vivo, mouse; details: 5% acetophenone, 60 minutes
Procedure: (§1) In order to independently validate the identity of an acetophenone receptor obtained with the RNAseq approach, the potential colocalization following acetophenone exposure of a neuronal activity marker (the phosphorylated ribosomal protein S6 (pS6) (Knight et al., 2012, Cell, 151, 1126-1137) and specific olfactory receptors were evaluated. To this aim, in-situ hybridizations were performed on sections of olfactory tissue with probes targeting receptor mRNAs followed by immunolabeling of pS6. The probes used were directed against the transcripts of most of the ORs determined as responsive including Olfr983 transcripts (encoding a known acetophenone receptor), Olfr171 transcripts (encoding a known ethyl isobutyrate receptor), and Olfr145 transcripts, encoding a newly identified receptor by RNAseq. Before analysis, mice were exposed to either 5% acetophenone, 5% ethyl isobutyrate, or a negative control condition for 60 minutes. […] 66% (Olfr983) and 70% (Olfr145) of the neurons were positive for pS6 after acetophenone exposure, while only 11% of the neurons expressing Olfr171 were positive for pS6 after exposure to this compound.

OSNs expressing olfr556 = assay: as above; assay type: in vivo, mouse; details: 5% acetophenone, 60 minutes
Procedure: as §1

OSNs expressing olfr19 = assay: as above; assay type: in vivo, mouse; details: 5% acetophenone, 60 minutes
Procedure: as §1

olfr745 = assay: OR transcript level by RT-qPCR after in vivo odorant exposure; parameters: species or system mouse; key: The transcript downregulation of 21 out of the 26 olfactory receptor candidates obtained by RNAseq was confirmed by qPCR; false RNAseq positive candidates, namely OR candidates for which in fact mRNA was not downregulated following acetophenone exposure; details: 5% acetophenone exposure
Procedure: (§2) In vivo exposure to odorant: Starting 48 h before experiments, mice were habituated to pure DMSO on a cotton ball. 200 μl were pipetted directly onto the cotton and placed in the cage, replacing any cotton that was already in the cage for nest-making purposes.
(§3) On the day of the experiment, mice receiving odorants were transferred to a different room, where they were exposed to a cotton ball on which 200 μl of odorant diluted in pure DMSO were deposited. Exposures started in the morning between 8 and 10 am (that is two hours after lights were on) and mice were killed and dissected between 1 and 3 pm. […] If a number of different odorants were tested in the same experiment, a different overpressurized room would always be used for each odorant to avoid odor cross-contamination.
(§4) After odorant exposure, mice were killed by cervical dislocation and immediately decapitated. The main olfactory epithelia (MOE), were harvested in their entirety and transferred to a tube containing 600 μl of lysis buffer and β-mercaptoethanol (RNAeasy kit, Qiagen, following the manufacturer protocol) and a 0.5 cm diameter steel ball, and then put on ice. Samples were then homogenized using a FastPrep®-24 instrument (MP Biomedicals) at 6 m/s for 30 s and left on ice. RNA extraction was performed on all samples in parallel using the Qiagen RNeasy Mini® kit following the manufacturer's instructions. Two DNase treatments were performed on all samples: first using the Qiagen RNase-Free DNase Set® and then using the Life Technologies Ambion DNase I® kit. RNA samples were then aliquoted and stored at −80° C.
(§5) RNA concentrations were determined using an Amersham Ultrospec® 3100 Pro spectrophotometer, and RNA quality was evaluated with an Agilent Technologies 2100 Bioanalyzer®. Each reverse transcription was performed with 0.5 μg RNA using the Takara Primescript® kit, in a final volume of 10 μl. Primers for reverse transcription were equal mixtures of poly-T nucleotides and random hexamers. Negative controls (omitting the reverse transcriptase enzyme) were performed for each sample. 1/14th of the cDNA preparation was used for each triplicated qPCR reaction.
(§6) qPCR Ct values were analyzed using an in-house developed Microsoft Excel® macro file. Triplicate values were compared and outliers (values with a difference higher than 0.5 Ct to their nearest neighbor) were discarded. The number of conditions with an outlying value was always less than 10% of the total number of conditions. Ct values were converted to quantities relative to the maximum for each given gene. Selected reference genes were then analyzed for variance using the geNorm algorithm. All values were normalized with the olfactory tissue-specific genes Omp and Adcy3. β-Actin was used as a non-tissue-specific reference gene to control for differences in dissection between samples.
(§7) Mice (n=6) were exposed to 5% acetophenone or to a “neutral” control condition for 5 hours. An olfactory cDNA library corresponding to each animal was deep sequenced and the ratios of odorant receptor mRNA concentrations relative to controls were plotted (FIG. 3). […] Based on transcriptional downregulation levels observed by RNAseq following acetophenone exposure, a list of 26 candidate responsive ORs was determined (FIG. 3), that reached 74% decrease (Olfr145) or even over 80% (Olfr169) relative to controls. […] The transcript downregulation of 21 out of the 26 olfactory receptor candidates obtained by RNAseq was confirmed by qPCR.

olfr378 = assay: as above; parameters: species or system mouse; key: The transcript downregulation of 21 out of the 26 olfactory receptor candidates obtained by RNAseq was confirmed by qPCR; false RNAseq positive candidates, namely OR candidates for which in fact mRNA was not downregulated following acetophenone exposure; details: 5% acetophenone exposure
Procedure: as §2, §3, §4, §5, §6, §7

olfr736 = assay: as above; parameters: species or system mouse; key: The transcript downregulation of 21 out of the 26 olfactory receptor candidates obtained by RNAseq was confirmed by qPCR; false RNAseq positive candidates, namely OR candidates for which in fact mRNA was not downregulated following acetophenone exposure; details: 5% acetophenone exposure
Procedure: as §2, §3, §4, §5, §6, §7

Olfr983 = assay: OR transcript downregulation by RNAseq after in vivo exposure; parameters: species or system mouse; details: 5% odorant, 5 hours, reduction larger than 20% = downregulated
Procedure: (§8) Animals were exposed to 5% acetophenone for 5 hours before RNA extraction (as previously described). cDNA libraries were generated with the Truseq RNA and DNA sample preparation kits after selection of polyA-containing mRNAs. Adapters for RNAseq multiplexing were added to the cDNAs. The cDNA libraries were sequenced with a HiSeq®2500 Sequencing system. 100 bp reads were mapped using Bowtie2 with a 28 bp seed. The differential gene expression analyses were performed with DESeq2. Because of the high sequence similarity between OR gene paralogs, some reads are mapped to multiple OR genes. These reads were removed from the analysis.
as §7

Olfr160 = assay: as above; parameters: species or system mouse; details: 5% odorant, 5 hours, reduction larger than 20% = downregulated
Procedure: as §8, §7

Olfr169 = assay: as above; parameters: species or system mouse; details: 5% odorant, 5 hours
Procedure: as §8, §7

Olfr1377 = assay: as above; parameters: species or system mouse; details: 5% odorant, 5 hours, reduction larger than 20% = downregulated
Procedure: as §8, §7

Olfr730 = target: T1, Olfr730 (Mus musculus, UniProt A0A0U1RNX7); assay: OR transcript level by RT-qPCR after in vivo odorant exposure; details: 5% odorant, 5 hours
T1 construct: from tissue; host or cells: olfactory epithelium of adult C57BL/6 mice
Procedure: as §2
On the day of the experiment, mice receiving odorants were transferred to a different room, where they were exposed to a cotton ball on which 200 μl of odorant diluted in pure DMSO were deposited. Exposures started in the morning between 8 and 10 am (that is two hours after lights were on) and mice were killed and dissected between 1 and 3 pm. […]
RNA concentrations were determined using an Amersham Ultrospec® 3100 Pro spectrophotometer, and RNA quality was evaluated with an Agilent Technologies 2100 Bioanalyzer®. […]
qPCR Ct values were analyzed using an in-house developed Microsoft Excel® macro file. […] Ct values were converted to quantities relative to the maximum for each given gene. Selected reference genes were then analyzed for variance using the geNorm algorithm. […]
Adult C57BL/6 mice were exposed to 5% acetophenone for 5 hours, and the level of transcripts of odorant receptors' genes were measured by RT-qPCR on extracts of olfactory epithelia from these mice, as described in the materials and methods section.

T1 sequence (A0A0U1RNX7 1-317): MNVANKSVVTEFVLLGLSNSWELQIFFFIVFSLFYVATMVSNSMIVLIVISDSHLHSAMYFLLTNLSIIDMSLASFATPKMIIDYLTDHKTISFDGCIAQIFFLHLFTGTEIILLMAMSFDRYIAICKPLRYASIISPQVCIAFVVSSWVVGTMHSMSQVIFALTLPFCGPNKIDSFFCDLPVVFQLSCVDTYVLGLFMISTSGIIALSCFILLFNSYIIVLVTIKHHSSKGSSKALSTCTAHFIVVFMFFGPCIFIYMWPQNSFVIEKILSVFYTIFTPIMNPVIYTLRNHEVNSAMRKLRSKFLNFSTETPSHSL

CC(=O)c1ccccc1 [acetophenone]
olfr229 ps6 positive (OSNs expressing olfr229): y (neuronal activation (i.e. pS6 signal in a fraction of neuron exceeding 15% relative to controls))
olfr556 ps6 positive (OSNs expressing olfr556): y (neuronal activation (i.e. pS6 signal in a fraction of neuron exceeding 15% relative to controls))
olfr19 ps6 positive (OSNs expressing olfr19): y (neuronal activation (i.e. pS6 signal in a fraction of neuron exceeding 15% relative to controls))
olfr745 candidate OR (RNAseq) confirmed by qPCR (olfr745): y
olfr378 candidate OR (RNAseq) confirmed by qPCR (olfr378): n
olfr736 candidate OR (RNAseq) confirmed by qPCR (olfr736): y
Olfr983 transcript modulation (RNAseq) (Olfr983): downregulated
Olfr160 transcript modulation (RNAseq) (Olfr160): downregulated
Olfr169 transcript decrease relative to controls (RNAseq) (Olfr169): over 80%
Olfr1377 transcript modulation (RNAseq) (Olfr1377): downregulated
Olfr730 mRNA concentration increase, fold change (Olfr730): 1.4 fold
